This note sets out measurements from patent US20110183978A1, “Phenylpyri(mi)dinylazoles” (Bayer CropScience AG, priority 2009, published 2011).

For data set [1], the system named is Alternaria solani. The experiment in a line: Example M: in vivo test on Alternaria solani (leaf blotch disease/tomato/protective). As to conditions: 168 h, tomato, protective, 500 ppm active substance, assessed 7 days after inoculation, read-out: % Wirkungsgrad (activity level). In short, it runs like this: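 Protective test: young tomato plants sprayed with active substance (in DMF with alkylaryl polyglycol ether emulsifier, diluted in water) at the stated dosage, then inoculated with Alternaria solani. Disease assessed 7 days after inoculation.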

Data set [2] relates to Mycosphaerella graminicola. The experiment in a line: Example G: in vivo test on Mycosphaerella graminicola (wheat leaf blotch disease). To be noted: Zymoseptoria tritici, wheat plants sprayed 24 hours before inoculation, scored after 21 to 28 days, read-out: % Wirkungsgrad. As to the method: In Vivo Test on Mycosphaerella Graminicola (Wheat Leaf Blotch Disease) An aqueous suspension of the active substance was prepared by homogenization of a mixture of acetone/Tween/dimethyl sulphoxide and subsequent dilution with water to the desired concentration. Wheat plants (variety: Scipion) are sown in cultivation dishes on a peat-pozzolanic earth substrate (50/50) at 12° C. and sprayed at the first-leaf stage (10 cm size) with the aqueous suspension described above. As a control, plants are sprayed with an aqueous solution with no active substance. After 24 hours the plants are inoculated by spraying with an aqueous suspension of Mycosphaerella graminicola spores (500,000 spores per ml). The spores are derived from a 7 day-old culture. […] After 21 to 28 days they are scored in comparison with the control plants.

Data set [3] is described as follows: physchem.
The test system of data set [4] is Botrytis cinerea. Nature of the data set: Example P: in vivo test on Botrytis cinerea (gray mould on bean/protective). To be noted: 48 h, bean, protective, 250 ppm active substance, assessed 2 days after inoculation, read-out: % Wirkungsgrad (activity level). How it is done: Emulsifier: 1 part by weight alkylaryl polyglycol ethers For the preparation of a suitable active substance preparation, 1 part by weight of active substance is mixed with the stated quantities of solvent and emulsifier and the concentrate is diluted to the desired concentration with water. For the testing for protective activity, young plants are sprayed with the active substance preparation at the stated application dosage. After drying of the spray coating, 2 small pieces of agar with Botrytis cinerea growing on them are laid on every leaf. […] 2 days after the inoculation, the size of the infection blotches on the leaves is assessed.

For data set [5], the system named is Sphaerotheca fuliginea. The experiment in a line: Example L: in vivo test on Sphaerotheca fuliginea (powdery mildew on cucumber/protective). To be noted: Podosphaera fuliginea, 168 h, cucumber, protective, assessment 7 days after inoculation, read-out: % Wirkungsgrad. In short, it runs like this: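 Young cucumber plants sprayed at stated dosage with compound in DMF/alkylaryl polyglycol ether emulsifier diluted in water; inoculated with S. fuliginea spores one day later. Kept in greenhouse at 70% relative humidity, 23° C; protective activity assessed 7 days after inoculation.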

For data set [6], the system named is Fusarium graminearum. The experiment in a line: whole plant or invertebrate. In kind it is in vivo. To be noted: in Hordeum vulgare, 120 h, read-out: % Wirkungsgrad (activity level).
For data set [7], the system named is Venturia inaequalis. The experiment in a line: Example O: in vivo test on Venturia inaequalis (apple scab/protective). To be noted: 240 h, protective, assessment 10 days after inoculation, read-out: % Wirkungsgrad. As to the method:
Emulsifier: 1 part by weight alkylaryl polyglycol ethers For the preparation of a suitable active substance preparation, 1 part by weight of active substance is mixed with the stated quantities of solvent and emulsifier and the concentrate is diluted to the desired concentration with water. For the testing for protective activity, young plants are sprayed with the active substance preparation at the stated application dosage. […] 10 days after the inoculation, the assessment takes place.

Data set [8] relates to Sphaerotheca fuliginea. Nature of the data set: Example D: in vivo test on Sphaerotheca fuliginea (powdery mildew on cucumber). To be noted: Podosphaera fuliginea, 288 h, cucumber plants sprayed 24 hours before inoculation, scored after 12 days, read-out: % Wirkungsgrad. How it is done:
In Vivo Test on Sphaerotheca Fuliginea (Powdery Mildew on Cucumber) An aqueous suspension of the active substance was prepared by homogenization of a mixture of acetone/Tween/dimethyl sulphoxide and subsequent dilution with water to the desired concentration. Cucumber plants (variety: Vert petit de Paris) are sown in cultivation dishes on a peat-pozzolanic earth substrate (50/50) at 20/23° C. and at the cotyledon stage Z10 sprayed with the aqueous suspension described above. As a control, plants are sprayed with an aqueous solution with no active substance. After 24 hours the plants are inoculated by spraying with an aqueous suspension of Sphaerotheca fuliginea spores (100,000 spores per ml). The spores are derived from a contaminated plant. The inoculated cucumber plants are incubated at ca. 20/25° C. at a relative atmospheric humidity of 60/70%. After 12 days they are scored in comparison with the control plants.

Data set [9] has as its system Fusarium graminearum. The experiment in a line: microbe, parasite or virus in culture. It is filed as cell-based.
Data set [10] has as its system Plasmopara viticola. Nature of the data set: Example N: in vivo test on Plasmopara viticola (downy mildew, vine/protective). To be noted: 144 h, vine, protective, assessment 6 days after inoculation, read-out: % Wirkungsgrad. As to the method: Emulsifier: 1 part by weight alkylaryl polyglycol ethers For the preparation of a suitable active substance preparation, 1 part by weight of active substance is mixed with the stated quantities of solvent and emulsifier and the concentrate is diluted to the desired concentration with water. For the testing for protective activity, young plants are sprayed with the active substance preparation at the stated application dosage. […] The plants are then moistened and placed in an incubation cabin for 1 day. 6 days after the inoculation, the assessment takes place.

Data set [11] has as its system Fusarium proliferatum. Nature of the data set: Example I: production of fumonisin FB1 by Fusarium proliferatum (microtitre plates). It is filed as cell-based. To be noted: 120 h.
Data set [12] has as its system Peronospora parasitica. Nature of the data set: Example A: in vivo test on Peronospora parasitica (downy mildew on white cabbage). As to conditions: Hyaloperonospora parasitica, 120 h, cabbage plants sprayed 24 hours before inoculation, scored after 5 days, read-out: % Wirkungsgrad. How it is done:
In Vivo Test on Peronospora Parasitica (Downy Mildew on White Cabbage) An aqueous suspension of the active substance was prepared by homogenization of a mixture of acetone/Tween (dispersant)/dimethyl sulphoxide (DMSO) and subsequent dilution with water to the desired concentration. Cabbage plants (variety: Eminence) are sown in cultivation dishes on a peat-pozzolanic earth substrate (50/50) at 18-20° C. and sprayed at the cotyledon stage with the aqueous suspension described above. As a control, plants are sprayed with an aqueous solution with no active substance. After 24 hours, the plants are inoculated by spraying with an aqueous suspension of Peronospora parasitica spores (50,000 spores per ml). The spores are derived from infected plants. The inoculated cabbage plants are incubated for 5 days at ca. 20° C. in a moist atmosphere. After 5 days, they are scored in comparison with the control plants.

Where [13] appears, read: LogPA (logP of the stated pure compound or, in a mixture, of the main isomer, 1-substituted 3-aryl-1H-pyrazole).
[14] abbreviates: 72 h, read-out: % Inhibition des Pilzwachstums bei 50 μM.
Setting [15] is: 168 h, read-out: % Inhibition der DON/AcDON produktion bei 50 μM.
[16] abbreviates: Fusarium proliferatum growth, OD 620, 5 days, read-out: % Inhibition des Pilzwachstums bei 50 μM.
Where [17] appears, read: Fusarium proliferatum, 5 days at 20° C., HPLC-MS/MS, read-out: % Inhibition der FB1 produktion bei 50 μM.

The term chromatographic logP denotes a lipophilicity value derived from retention on a column.

Read-outs that look alike come from different tables or passages of the source.

On to `CC(C)n1ncc(-c2ccnc(NC(=O)C(C)(C)C)c2)c1-c1ccc(F)cc1` [Compound 72], for which the pest or weed control at 500 ppm in data set [1] was determined as 95%; in data set [2] it was 83%. In addition, in [3] (setting [13]), the chromatographic logP came to 2.99.

On to `O=C(CC1CC1)Nc1cc(-c2cn(CC3CC3(Cl)Cl)nc2-c2ccc(F)cc2)ccn1` (stereo not shown) [Compound 251], for which, in data set [4], the pest or weed control at 250 ppm is 95%. Besides, the pest or weed control at 500 ppm in data set [1] is 94%; in data set [5], 96%. The compound also gave a chromatographic logP in [3] (LogPA) of 3.3. In addition, the pest or weed control at 1000 ppm in data set [6] is 83%. Besides, in [7], the pest or weed control at 100 ppm worked out at 84%.

Turning to `Fc1cccc(F)c1-c1c(-c2ccncc2)cnn1CC1CCCO1` (stereo not shown) [Compound 27], the pest or weed control at 500 ppm amounted to 73% in data set [8] and 97% in data set [2]. Further, the chromatographic logP in data set [3] (setting [13]) amounted to 1.21.

For `CCOC(=O)CCn1cc(-c2ccncc2)c(-c2ccc(F)cc2)n1` [Compound 132], the pest or weed control at 500 ppm worked out at 82% in [8] and 86% in data set [2]. The chromatographic logP in [3] (setting [13]) was 1.29.

With `Fc1cccc(F)c1-c1nn(C2CCCC2)cc1-c1ccncc1` [Compound 16], the pest or weed control at 500 ppm in data set [2] came out at 97%. For the same compound, the chromatographic logP in data set [3] (setting [13]) was determined as 1.79.

For `O=C(Nc1cc(-c2cn(CC3CC3(Cl)Cl)nc2-c2ccc(F)cc2)ccn1)C1CC1` (stereo not shown) [Compound 260], the inhibition at 50 µM in data set [9] (setting [14]) was 5%; in [9] (setting [15]), 99%. The pest or weed control at 250 ppm in data set [4] came to 100%. Further, the results for the pest or weed control at 500 ppm in [1] and in [5] were 90% and 95%, respectively. Besides, the pest or weed control at 100 ppm in [10] amounted to 70%; in data set [7], 94%. The chromatographic logP in [3] (LogPA) was 2.67.

With `C#CCn1ccc2c(-c3cn(C(C)C)nc3-c3ccc(F)cc3)ccnc21` [Compound 47], the pest or weed control at 500 ppm in data set [2] turned out to be 77%. For the same compound, the inhibition at 50 µM was 0% in [11] (setting [16]) and 98% in [11] (setting [17]). In [3] (setting [13]), the chromatographic logP was determined as 3.63.

For the compound `CC(C)(C)Cn1ncc(-c2ccncc2)c1-c1c(F)cccc1F` [Compound 6], the pest or weed control at 500 ppm is 70% in data set [12], 95% in data set [8] and 85% in [2]. Besides, in [3] (setting [13]), the chromatographic logP came out at 1.79.

Regarding `CC(=O)Nc1cc(-c2cn(C(C)C)nc2-c2ccc(F)cc2)ccn1` [Compound 161], the inhibition at 50 µM turned out to be 104% in [9] (setting [14]) and 100% in data set [9] (setting [15]). The pest or weed control at 250 ppm in data set [4] was 100%. Besides, the pest or weed control at 500 ppm came out at 95% in data set [1] and 100% in data set [5]. Also, the pest or weed control at 100 ppm in data set [10] and in data set [7] was 95% in each case. Moreover, the chromatographic logP in [3] (setting [13]) was 1.85.

Consider `Fc1cccc(F)c1-c1nn(CC2CCCO2)cc1-c1ccncc1` (stereo not shown) [Compound 26], for which the values for the pest or weed control at 500 ppm in data set [8] and in data set [2] were 80% and 88%, respectively. Besides, the chromatographic logP in data set [3] (setting [13]) amounted to 1.16.

On to `CCC(=O)Nc1cc(-c2cn(CCCl)nc2-c2ccc(F)cc2)ccn1` [Compound 219], for which the inhibition at 50 µM amounted to 97% in [9] (setting [14]), 100% in [9] (setting [15]), 97% in [11] (setting [16]) and 100% in data set [11] (setting [17]). Moreover, in [4], the pest or weed control at 250 ppm amounted to 100%. Also, the pest or weed control at 100 ppm in [10] came to 95%; in data set [7] it was 96%. For the same compound, the pest or weed control at 500 ppm in data set [5] was determined as 100%. In data set [3] (LogPA), this compound gave a chromatographic logP of 2.01.

For `CNC(=O)c1cc(-c2cn(C(C)C)nc2-c2ccc(F)cc2)ccn1` [Compound 53], the pest or weed control at 500 ppm came to 98% in data set [8] and 91% in data set [2]. Further, the inhibition at 50 µM in data set [11] (setting [16]) was 0%; in data set [11] (setting [17]) it was 96%. Further, in data set [3] (setting [13]), the chromatographic logP came to 2.74.

As to `CC(=O)n1ccc2c(-c3cn(C4CCCCO4)nc3-c3ccc(F)cc3)ccnc21` (stereo not shown) [Compound 81], the pest or weed control at 500 ppm in data set [1] was 95%; in data set [12] it was 89%; in data set [8], 77%; in data set [2] it was 97%. In addition, the chromatographic logP in [3] (setting [13]) amounted to 3.85.

On to `C#CCNc1nccc(-c2cn(CC(C)C)nc2-c2ccc(F)cc2)n1` [Compound 183], for which the inhibition at 50 µM in [9] (setting [14]) was found to be 65%; in data set [9] (setting [15]) it was 99%. The pest or weed control at 250 ppm in data set [4] worked out at 93%. Also, the pest or weed control at 500 ppm worked out at 100% in [1] and 94% in [5]. Also, the pest or weed control at 100 ppm is 86% in data set [10] and 73% in data set [7]. This compound returned a chromatographic logP in [3] (LogPA) of 2.76.

As to `CC(C)n1cc(-c2ccnc(NC(=O)c3ccsc3)c2)c(-c2ccc(F)cc2)n1` [Compound 207], the results for the inhibition at 50 µM in data set [9] (setting [14]) and in [9] (setting [15]) were 75% and 100%, respectively. In data set [4], the pest or weed control at 250 ppm amounted to 100%. Also, the pest or weed control at 500 ppm in data set [1] came out at 90%; in data set [5], 100%. The pest or weed control at 100 ppm is 71% in data set [10] and 86% in [7]. For the same compound, the chromatographic logP in data set [3] (LogPA) worked out at 2.96.

As to `Fc1cccc(F)c1-c1nn(CC(F)(F)F)cc1-c1ccncc1` [Compound 12], the values for the pest or weed control at 500 ppm in data set [8] and in data set [2] were 95% and 77%, respectively. For the same compound, the chromatographic logP in [3] (setting [13]) stood at 1.39.

With `Fc1cccc(F)c1-c1c(-c2ccncc2)cnn1C1CCC1` [Compound 15], the pest or weed control at 500 ppm in data set [1] stood at 95%; in data set [12], 75%; in data set [8], 87%; in data set [2], 97%; in data set [5] it was 95%. Also, the chromatographic logP in data set [3] (setting [13]) amounted to 1.49.
